Measured values taken from US20170143674A1, “Use of Glutaryl Histamine for the Treatment of Respiratory Tract Diseases” (LTD "VALENTA-INTELLEKT", priority 2011, published 2017).

Test system: Staphylococcus aureus (mouse-adapted strain 10)
Experiment: animal or person
Type: in vivo, mice
Conditions: for Mortality rate (%) / Survival rate (%): tenth day
Procedure: The tested medicament was glutaryl histamine in doses of 15, 30 and 45 mg/kg. Solutions of the tested medicament for oral administration were prepared ex tempore. Ampicillin (in intravenous administration) was used as a therapeutic preparation since this substance was the most experimentally studied antibiotic approved in clinical practice many years ago.
Staphylococcus aureus (mouse-adapted strain 10) was used as an infectious agent. Mice were infected intravenously.
Firstly, there was determined a lethal dose (LD100) of staphylococcus when intravenously administered to this line of mice with a certain weight. Fatal cases among mice were registered every day for ten days. The lethal dose was 3×10^8 CFU/mouse. […] For this purpose, mice were housed into cages (10 animals per cage) and infected with a lethal dose of staphylococcus. One hour later, each mouse was intravenously administered ampicillin in doses of 10, 20, 30, 40, and 50 mg/kg. A group of mice infected with a lethal dose of staphylococcus without the treatment was considered as a control group. Fatal cases among mice were registered every day for ten days.
The next step of the experiment was to study an effect of combined administration of glutaryl histamine with ampicillin on a model of staphylococcal sepsis in mice.
In the experiment, mice were housed in following groups (10 animals per cage):
Glutaryl histamine was administered orally in the corresponding doses to mice of groups 3, 4, 5, 6, 7, and 8 for 5 days. Five day after, all groups of mice were intravenously administered 0.2 ml of Staphylococcus aureus in the lethal dose. One hour after infection, mice of groups 2, 6, 7 and 8 were […] administered 0.2 ml of ampicillin in a dose of 20 mg/kg. After infection and administration of ampicillin, mice of groups 3-8 were administered glutaryl histamine for additional 5 days. During the experiment, the animals were observed every day, and fatal cases were registered.

O=C(O)CCCC(=O)NCCc1c[nH]cn1 [glutaryl histamine]
died/survived animals (day 1, glutaryl histamine 15 mg/kg): 0/10
died/survived animals (day 1, glutaryl histamine 30 mg/kg): 0/10
died/survived animals (day 1, glutaryl histamine 45 mg/kg): 0/10
died/survived animals (day 2, glutaryl histamine 15 mg/kg): 0/10
died/survived animals (day 2, glutaryl histamine 30 mg/kg): 0/10
died/survived animals (day 2, glutaryl histamine 45 mg/kg): 0/10
died/survived animals (day 3, glutaryl histamine 15 mg/kg): 0/10
died/survived animals (day 3, glutaryl histamine 30 mg/kg): 0/10
died/survived animals (day 3, glutaryl histamine 45 mg/kg): 1/9
died/survived animals (day 4, glutaryl histamine 15 mg/kg): 1/9
died/survived animals (day 4, glutaryl histamine 30 mg/kg): 1/9
died/survived animals (day 4, glutaryl histamine 45 mg/kg): 1/9
died/survived animals (day 5, glutaryl histamine 15 mg/kg): 2/8
died/survived animals (day 5, glutaryl histamine 30 mg/kg): 2/8
died/survived animals (day 5, glutaryl histamine 45 mg/kg): 3/7
died/survived animals (day 6, glutaryl histamine 15 mg/kg): 4/6
died/survived animals (day 6, glutaryl histamine 30 mg/kg): 3/7
died/survived animals (day 6, glutaryl histamine 45 mg/kg): 4/6
died/survived animals (day 7, glutaryl histamine 15 mg/kg): 5/5
died/survived animals (day 7, glutaryl histamine 30 mg/kg): 4/6
died/survived animals (day 7, glutaryl histamine 45 mg/kg): 5/5
died/survived animals (day 8, glutaryl histamine 15 mg/kg): 6/4
died/survived animals (day 8, glutaryl histamine 30 mg/kg): 6/4
died/survived animals (day 8, glutaryl histamine 45 mg/kg): 6/4
died/survived animals (day 9, glutaryl histamine 15 mg/kg): 6/4
died/survived animals (day 9, glutaryl histamine 30 mg/kg): 7/3
died/survived animals (day 9, glutaryl histamine 45 mg/kg): 7/3
died/survived animals (day 10, glutaryl histamine 15 mg/kg): 7/3
died/survived animals (day 10, glutaryl histamine 30 mg/kg): 7/3
died/survived animals (day 10, glutaryl histamine 45 mg/kg): 8/2
Mortality rate (%) (glutaryl histamine 15 mg/kg): 70%
Survival rate (%) (glutaryl histamine 15 mg/kg): 30%
Mortality rate (%) (glutaryl histamine 30 mg/kg): 70%
Survival rate (%) (glutaryl histamine 30 mg/kg): 30%
Mortality rate (%) (glutaryl histamine 45 mg/kg): 80%
Survival rate (%) (glutaryl histamine 45 mg/kg): 20%
